Assay results: patent US20210107874A1, “PHARMACEUTICAL FORMULATION OF CROTONYLAMINOPYRIDINE SALT” (priority 2017, published 2021)
Like-named read-outs stand apart in the source and are kept apart here.

Assays:
[1] = PK studies of formulations, plasma by HPLC-MS/MS; format: in vivo; conditions: bovine, plasma, 1.25 mg/kg, Cattle, 1.25 mg/kg; for Cmax: read-out: Cmax; for Tmax: read-out: Tmax; for AUC: read-out: AUC
Method: The following formulations were prepared and administered to animals. Blood samples were collected at pre-defined time points and the amount of compound present in plasma at the time of sampling was determined by HPLC-MS/MS. Pharmacokinetic parameters were then calculated: Cmax, Tmax, Tlast, AUC. [table]

[2] = Stability tests of solutions of compound 4 with equimolar acids in water; format: physicochemical; conditions: for solubility: water with equimolar acid, thermodynamic from solid
Method: Equimolar amounts of compound 4 and acids were diluted with water: Water was added until all residues were dissolved. 200, 100 and 50 mg of compound 4 was used, each amount was combined with each acid of the following list. The solutions were equilibrated at room temperature and then held for 7 days at room temperature and thereafter 7 days at 8° C.

[3] = sc, FormF62.5 (polyethylene glycol, 1-octanol, 2-pyrrolidone)
[4] = sc, FormG62.5 (benzyl alcohol, ethyl alcohol 96%, polyethylene glycol 300)
[5] = sc, FormH62.5 (DMA, DMSO, 2-pyrrolidone)
[6] = sc, FormK62.5 (2-pyrrolidone, Transcutol P, ethyl lactate)
[7] = sc, FormL50 (DMA, propylene glycol, water)
[8] = sc, FormP62.5 (L-tartaric acid, 2-pyrrolidone, NaOH, water)
[9] = sc, pH 4.3, FormQ62.5 (L-tartaric acid, sodium carboxymethyl cellulose, NaOH up to pH 4.3, water)
[10] = sc, pH 4.4, Form O62.5 (FormO type: L-tartaric acid, NaOH to pH 4.4, water)
[11] = sc, pH 4.6, FormM62.5 (L-tartaric acid, sodium hydroxide up to pH 4.6, water)
[12] = FormJ62.5 (DMSO, 2-pyrrolidone, ethyl lactate), SC

CCOc1cc(NCCNC(=O)/C=C/C(F)(F)F)ccn1 [Compound 4, (E)-N-[2-[(2-ethoxy-4-pyridyl)amino]ethyl]-4,4,4-trifluoro-but-2-enamide]
Cmax [1, 3]: 15.2 ng/mL
Tmax [1, 3]: 37.8 min
AUC [1, 4]: 44.8 ng·h/mL
Cmax [1, 4]: 12.5 ng/mL
Tmax [1, 4]: 140 min
AUC [1, 5]: 88.2 ng·h/mL
Cmax [1, 5]: 42.1 ng/mL
Tmax [1, 5]: 40.2 min
AUC [1, 6]: 86 ng·h/mL
Cmax [1, 6]: 29.9 ng/mL
Tmax [1, 6]: 49.8 min
AUC [1, 7]: 59.8 ng·h/mL
Cmax [1, 7]: 28.1 ng/mL
Tmax [1, 7]: 40.2 min
AUC [1, 8]: 322 ng·h/mL
Cmax [1, 8]: 94.2 ng/mL
Tmax [1, 8]: 49.8 min
AUC [1, 9]: 356 ng·h/mL
Cmax [1, 9]: 297 ng/mL
Tmax [1, 9]: 34.8 min
AUC [1, 10]: 358 ng·h/mL
Cmax [1, 10]: 300 ng/mL
Tmax [1, 10]: 30 min
AUC [1, 11]: 336 ng·h/mL
Cmax [1, 11]: 350 ng/mL
Tmax [1, 11]: 15 min
AUC [1, 12]: 99.6 ng·h/mL
Cmax [1, 12]: 37.1 ng/mL
Tmax [1, 12]: 110 min
pH ([2]; equimolar Citric acid in water): 3.41
pH ([2]; equimolar D-glucoronic acid in water): 4.15
pH ([2]; equimolar Ethanesulfonic acid in water): 1.23
pH ([2]; equimolar Fumaric acid in water): 3.74
pH ([2]; equimolar Hydrochloric acid in water): 1.15
pH ([2]; equimolar L-lactic acid in water): 4.28
pH ([2]; equimolar Methanesulfonic acid in water): 1.28
pH ([2]; equimolar Oxalic acid in water): 2.14
pH ([2]; equimolar Sulfuric acid in water): 0.06
pH ([2]; equimolar Tartaric acid in water): 3.35
solubility ([2]; pH 0.06, water, equimolar Sulfuric acid in water): > 200 mg/mL
solubility ([2]; pH 1.15, water, equimolar Hydrochloric acid in water): > 200 mg/mL
solubility ([2]; pH 1.23, water, equimolar Ethanesulfonic acid in water): > 200 mg/mL
solubility ([2]; pH 1.28, water, equimolar Methanesulfonic acid in water): > 200 mg/mL
solubility ([2]; pH 2.14, water, equimolar Oxalic acid in water): > 200 mg/mL
solubility ([2]; water, equimolar Citric acid in water): > 200 mg/mL
solubility ([2]; water, equimolar D-glucoronic acid in water): > 100 mg/mL
solubility ([2]; water, equimolar Fumaric acid in water): > 200 mg/mL
solubility ([2]; water, equimolar L-lactic acid in water): > 100 mg/mL
solubility ([2]; water, equimolar Phosphoric acid in water): > 100 mg/mL
solubility ([2]; water, equimolar Tartaric acid in water): > 200 mg/mL
solubility ([2]; water, equimolar acetic acid in water): < 50 mg/mL
solubility ([2]; water, equimolar benzenesulfonic acid in water): < 50 mg/mL
solubility ([2]; water, equimolar benzoic acid in water): < 50 mg/mL
solubility ([2]; water, equimolar ethanedisulfonic acid in water): < 50 mg/mL
solubility ([2]; water, equimolar isethionic acid in water): > 200 mg/mL
solubility ([2]; water, equimolar maleic acid in water): < 50 mg/mL
solubility ([2]; water, equimolar malonic acid in water): < 50 mg/mL
solubility ([2]; water, equimolar p-toluenesulfonic acid in water): < 50 mg/mL
solubility ([2]; water, equimolar saccharin in water): < 50 mg/mL
solubility ([2]; water, equimolar succinic acid in water): < 50 mg/mL
